Results reported in a melting point compilation (Tetko et al.; mined from patent text by program, amines drawn as free bases though some values may be those of a salt).

melting point [°C]	SMILES
179 to 181	CCCc1nc2c(N)nc3cc(OCCCNC(=O)C(C)C)ccc3c2n1CC(C)C
201 to 202	O=C1c2ccccc2C(=O)N1CCCCSc1nccc(NC(=S)NCC(F)(F)F)n1
121 to 122	CCOC(=O)CNC(=O)CCCCCNC(=O)c1ccc(F)cc1
175 to 178	CC(=O)Oc1cc2c(cc1C(C)(C)C)OC(C)(CCOc1ccc(CC3SC(=N)NC3=O)cc1)CC2 (stereo not drawn)
100 to 102	COc1cc(NCCCCCCN2CCN(CCCO)CC2)c2nccc(C)c2c1
169 to 172	CS(=O)(=O)c1ccc(-c2cnn(Cc3ccsc3)c(=O)c2-c2ccc(F)cc2)cc1
65 to 68	CC(C)(C)C(=O)c1ccc(C(Br)Br)cc1
221 to 222	Cc1cc(S)n2nc(C(=O)NN)nc2n1
127 to 128	COc1ccc(Oc2ccc(Cl)cc2[N+](=O)[O-])c(C=O)c1
175 to 180	NCCN1CCN(c2ncc3ncnc(Nc4ccc(F)c(Cl)c4)c3n2)CC1
160 to 162	CC(=O)NCc1ccc2c(c1)N(C1CCN(CCc3ccc(F)cc3)CC1)CC2
100 to 102	Oc1ccc(OC[C@@H](O)CNCCc2ccc(-n3c(-c4ccc(C5CCCCC5)cc4)nc4cccnc43)cc2)cc1
75 to 77	N#CSCC(=O)c1ccccc1
144 to 147	CCN1CCC(n2nnnc2C2(c3cc(C(C)C)ccc3OC)C=CC(O)=CC2O)CC1 (stereo not drawn)
182 to 183	COc1cc(Nc2c(C#N)cnc3cc(-c4ccc(CN5CCOCC5)o4)ccc23)c(Cl)cc1Cl
97 to 101	COc1ccc(CCn2ccn(C3CCc4ccccc4C3)c2=S)cc1OC (stereo not drawn)
195 to 197	Cn1cc(C(=O)NCc2ccc(Cl)cc2)c(=O)c2cccc(C#CCCO)c21
124 to 127	CCCCCNC(=O)Nc1ccccc1C(=O)NCCC1CCN(C(c2ccccc2)c2ccccc2)CC1
121 to 123	CCOC(=O)N1CCc2nnc(N(C)N)cc2C1
135 to 136	CC(C)Sc1nc2c(cc1C#N)C(=O)CC(C)(C)C2
103 to 105	CC(C)c1cc(-c2ccc(F)c3ccc(F)cc23)nc(N)n1
136 to 138	CS(=O)(=O)c1ccc(-n2cnc(Cl)c2-c2ccc(OC(F)(F)F)cc2)cc1
121 to 122	CCC1CCCCN1C(=O)C=Cc1c(-c2ccccc2)nn2ccccc12 (stereo not drawn)
183 to 185	NC(=O)c1c(Cl)c(-c2ccccc2)n2c1CN(S(=O)(=O)Nc1ccc(F)cc1)CC2
185 to 187	NS(=O)(=O)c1ccc(-n2nccc2-c2ccc(Cl)cc2)cc1
183 to 185	O=C(N[C@@H](CSC(=O)c1ccccc1)C(=O)O)c1ccccc1

melting point [°C]	SMILES
65 to 66	CCc1nnc(CCc2ccc([N+](=O)[O-])cc2)o1
> 270	CSc1ncc(C(=O)NCCO)c(Nc2ccc3[nH]ncc3c2)n1
65 to 67	CCNC(=O)c1ccnc([N+](=O)[O-])c1
147	Cc1c(F)cccc1Cc1c(-c2ccccc2)c2ccccn2c1C(=O)N1CCN[C@@H](CC(=O)NCC2CCOCC2)C1
112 to 116	Oc1ccc(-c2c3ccccc3cc3sc4ccccc4c23)cc1
191 to 193	O=C(O)CN1C(=O)C(=CC2CCCCC2)SC1=S
192	CC(=O)Nc1ccc(C(=O)CBr)cc1
52	CC(C)=CC(=O)Nc1ccccc1CCN1CCN(c2nsc3ccccc23)CC1
70 to 72	CCCCNC(=O)NCCC
216	Cc1cc(N)nc(CCc2nc3cc(Br)cnc3[nH]2)c1
72 to 73	C#CCOc1cc(-n2nc(C(C)(C)C)oc2=O)c(F)cc1Cl
172 to 176	O=[N+]([O-])c1ccc2onc(-c3ccccc3O)c2c1
100 to 105	Nc1nccnc1C(=O)N1CCCC1
89 to 91	C[C@@H](Cc1ccc(OCC(=O)O)cc1)NS(=O)(=O)c1ccccc1
131 to 132	COCCNC(=O)c1cccc(-c2cccc3cc(Cc4cccc(S(C)(=O)=O)c4)sc23)c1
94 to 96	CCCCCCOc1ccc(CCCCCCCCC(=O)NO)cc1
158 to 160	Nc1ccc(O)c(C(=O)CCC(=O)O)c1
177 to 181	Cc1oc(-c2ccc(Cl)cc2)cc1C(=O)NCc1ccc2cc(OCC(=O)O)ccc2c1
155 to 158	O=C1NC(=O)C(Cc2ccc3c(c2)CCCN3Cc2ccccc2)S1 (stereo not drawn)
121 to 122	COc1ccc(CN2C(=O)[C@H](CO)[C@H]2S(=O)(=O)C(C)(C)C)cc1
133 to 134	CS(=O)(=O)c1ccc(-c2sc(-c3ccccc3Cl)nc2-c2ccc(F)cc2)cc1
283 to 284	Cn1c(Oc2ccc(Cl)c(F)c2)nc2c(-c3cccc(C(=O)O)c3)cccc21
51 to 54	Cc1cccc(OC(=O)c2ccccc2)c1
45 to 46	CC(=O)Nc1cc(C)nn1C
62 to 63	CNC(=S)NCCSCc1nscc1Br
98 to 102	CC(C)(C)CC(C)(C)Nc1nc(NC(C)(C)C(C)(C)C)nc(N2CC3CCC(CC3)C2)n1

melting point [°C]	SMILES
91 to 93	N#CC(CC(=O)c1ccc(C(F)(F)F)cc1)C1CC1 (stereo not drawn)
164 to 166	CNc1nc(-c2cccc3ccccc23)co1
55 to 57	Cc1oc(-c2ccccc2)nc1CC=Cc1ccc(CC2SC(=O)NC2=O)cc1 (stereo not drawn)
158 to 160	CC(C)Oc1ccc2c(c1)N(C)C(=O)N(c1ccc(C(F)(F)F)cc1)S2(=O)=O
185	NS(=O)(=O)c1ccc(NC(=O)CNc2ccc(Cl)cc2)c(Cl)c1
228 to 229	COc1cc(OC)c(-c2cccs2)cc1/C=C/C(=O)c1ccc(S(=O)(=O)Nc2ccc(C(F)(F)F)cn2)cc1
124 to 126	Cc1cccc(-c2sc3ccc(C(F)(F)F)cc3c2O)c1
124	CC(COS(C)(=O)=O)N1c2ccccc2Sc2ccc(C#N)cc21 (racemic)
150 to 155	O=S(=O)(CC1CCCC1)c1nc[nH]n1
97 to 100	CC(=O)c1ccc2sc3ccccc3c2c1
115 to 118	CC(=O)Nc1ccc2c(c1)OCC2
205 to 206	CC12C(=CCC3C1CCC1(C)C3CCC13OCCO3)CC(O)CC2O (stereo not drawn)
58 to 60	O=C(O)CCCCCCCCCN1C(=O)c2ccccc2C1=O
234 to 236	Cc1nc(-n2ccc(O)cc2=O)sc1C(=O)NCCC1CC1
135 to 137	CC(=O)Nc1c(-c2cccc(-n3c(N)nc4ccccc43)c2)cnn1C
65 to 70	CC(C)(C)c1cc(CC2SCNC2=O)ccc1O (stereo not drawn)
275 to 278	CC(c1oc2ccccc2c(=O)c1-c1cccc(F)c1)n1nc(-c2ccc(CN)s2)c2c(N)ncnc21 (stereo not drawn)
275 to 276	COc1ccc2c(c1)-c1nn(CCO)c3cccc(c13)N2
248	Cc1[nH]c2ccc(Br)cc2c1-c1ccncc1
210 to 213	O=c1c(-c2ccccc2)c[nH]n1-c1cccc(C(F)(F)F)c1
130 to 131	CC(C)(C)c1nc(-c2ccc(F)cc2)c(-c2ccc(S(C)(=O)=O)cc2)o1
188 to 190	COc1nc2ccc(Cl)cc2c(-c2ccccc2Cl)c1C(=O)O
170 to 171	COc1cc(CC(=O)c2c(O)c3cccnc3n(-c3ccccc3)c2=O)cc(OC)c1
68 to 70	CCC(C#N)(Cn1cncn1)c1ccc(Br)cc1 (stereo not drawn)
71 to 76	O=S(=O)(NC1Cc2ccc(CCO)cc2C1)c1ccc(Cl)cc1 (stereo not drawn)
107 to 108	C[C@@H]1[C@H](O[Si](C)(C)C(C)(C)C)[C@@H](C)C(S(=O)(=O)c2ccccc2)=C[C@H]1O

melting point [°C]	SMILES
156 to 158	C(=Cc1cc(OCc2ccccc2)cc(OCc2ccccc2)c1)c1ccc(OCc2ccccc2)cc1
298 to 300	O=C1NCCc2c1c1cccc3c1n2CCO3
50 to 52	CC(C)(C)c1nc2cc(CC#N)ccc2s1
164 to 167	CN(C)CCCOc1ccc2sc(C(=O)Nc3ccccc3N)cc2c1
106 to 107	O=[N+]([O-])c1ccc(Oc2ccccc2)c(Cl)c1Oc1ccccc1
192	CN1C(=O)CC[C@]2(C)c3ccc(-c4ccc(Cl)cc4)cc3CC[C@@H]12
258	Cc1cccc2nc(Cn3cnc4c(N)ncnc43)n(-c3ccccc3C(C)C)c(=O)c12
193 to 196	COc1ccc(C(=O)NC(=S)Nc2ccccc2C(N)=O)cc1
113 to 114	N#CCOc1ccc(O)c([N+](=O)[O-])c1
47 to 49	CN(CCCNc1ncc(Cc2ccccc2Cl)c(=O)[nH]1)c1ccccn1
137 to 138	N#Cc1ccc(OCc2ccc3c(c2)OCO3)cc1OC(C(=O)O)c1ccccc1C(F)(F)F (racemic)
103 to 104	O=Cc1c2ccccc2c(SCCO)c2ccccc12
158	Cn1cc(-c2ccc(Cl)c(OC3SCC(O)C(O)C3O)c2)cn1 (stereo not drawn)
155 to 159	Cc1ccc2oc(=O)c(C(=O)Oc3cc(F)ccc3F)cc2c1
200	OC1CSC(Oc2ccc(-c3ccco3)cc2)C(O)C1O (stereo not drawn)
250 to 253	COC(=O)c1ccc2[nH]c(C#N)c(-c3ccccc3)c2c1
204	O=C(CN1CCC(Cc2ccc(F)cc2)CC1)Nc1ccc2[nH]cnc2c1
190 to 191	O=C(O)COc1ccc(C(=O)C=Cc2ccccc2)c(Cl)c1Cl
138 to 140	COc1ccc(C=CC(=O)C=Cc2ccc(OC)cc2OC)c(OC)c1
60 to 63	CCOC(=O)CN(Cc1cc(F)ccc1[N+](=O)[O-])C(=O)C(F)(F)F
116 to 118	O=C(Nc1ccc(OCCN2CCOCC2)c2ccccc12)c1cc(F)cc(OC2CCCCC2)c1
190	O=C(Nc1ncnc2c1c(Cl)cn2C1CC(O)C(CO)O1)c1ccccc1 (stereo not drawn)
94 to 96	O=C1OC(CCCCN2CCN(c3ncccn3)CC2)CN1c1ccccc1 (stereo not drawn)

SMILES	melting point [°C]
CC1C(=O)NC(=O)NC1=O	200 to 215
Cc1cc2cc(C3CCNCC3)oc2cc1C	77 to 78
